From patent US11919902B2, “Aryl-bipyridine amine derivatives as phosphatidylinositol phosphate kinase inhibitors” (HiberCell, Inc., priority 2017, dated 2024) come the findings set out here.

The IC50 is the point on the concentration scale where inhibition reaches its midpoint.

One test deals with T1, GST tagged PIP4KtypeIIB (Homo sapiens, UniProt P78356).
T1 construct: made in house; host or cells: E. coli
T1 sequence (P78356 1-416): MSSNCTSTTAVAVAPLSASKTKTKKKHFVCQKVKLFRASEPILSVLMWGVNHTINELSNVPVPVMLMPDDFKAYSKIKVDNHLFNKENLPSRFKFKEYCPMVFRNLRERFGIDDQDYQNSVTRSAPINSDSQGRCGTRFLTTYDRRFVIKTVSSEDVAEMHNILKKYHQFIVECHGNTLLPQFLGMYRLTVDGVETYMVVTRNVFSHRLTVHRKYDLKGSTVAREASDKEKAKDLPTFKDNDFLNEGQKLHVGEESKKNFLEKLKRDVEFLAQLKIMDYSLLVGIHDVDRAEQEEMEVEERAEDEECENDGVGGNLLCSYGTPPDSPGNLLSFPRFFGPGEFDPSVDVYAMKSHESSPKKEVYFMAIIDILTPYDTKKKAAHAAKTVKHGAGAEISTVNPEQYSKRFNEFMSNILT
Description: Trans-FI P kinase assay PIP4K2B (PIP4KtypeIIB inhibition assay). It counts as biochemical. The conditions noted are these: Table 4; compounds listed under IC50 range headings; 100 uM GTP, 5 nM PIP4KIIB; read-out: Trans-FI P kinase assays: PIP4K2B IC50. A digest of the protocol: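 Transcreener FI fluorescence, converted to GDP by calibration, tracked product from 5 nM E. coli-expressed GST-PIP4KIIB acting on 80 uM PI5P (DOPE carrier) with 100 uM GTP. Compound (top 4.8 uM final, 5% DMSO) was preincubated 1 h at 27 C before the 2 h reaction; IC50 fitted from residual activity.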

Test [1] deals with T2, PIP4K2A (full length protein, SignalChem) (Homo sapiens, UniProt P48426).
T2 construct: 4 nM PIP4K2A (full length protein, SignalChem); purchased SignalChem
T2 sequence (P48426 1-406): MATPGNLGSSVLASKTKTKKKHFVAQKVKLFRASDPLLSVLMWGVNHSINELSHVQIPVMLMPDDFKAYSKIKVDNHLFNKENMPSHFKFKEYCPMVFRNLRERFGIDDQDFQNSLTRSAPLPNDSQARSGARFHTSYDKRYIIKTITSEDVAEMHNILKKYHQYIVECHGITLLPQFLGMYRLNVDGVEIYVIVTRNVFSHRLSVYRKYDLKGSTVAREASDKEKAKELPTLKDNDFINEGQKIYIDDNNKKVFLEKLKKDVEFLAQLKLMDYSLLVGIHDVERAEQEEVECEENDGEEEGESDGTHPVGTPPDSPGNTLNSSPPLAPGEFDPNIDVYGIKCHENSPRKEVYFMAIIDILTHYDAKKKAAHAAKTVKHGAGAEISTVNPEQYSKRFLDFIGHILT
Description: Kinase Assay PIP4K2 A (Sprint); ADP-Glo biochemical assay. Particulars: Table 2; compounds listed under IC50 range headings. A digest of the protocol:
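ADP-Glo luminescence detected ADP after a 1 h RT reaction started with 60 μM ATP solution. Before that, full-length PIP4K2A (4 nM in mix) with 100 μM PI(5)P diC8 was pre-incubated 15 min with compounds in MOPS buffer pH 7.2, 25 mM MgCl2, 0.005% Tween 20. IC50 derived from % inhibition relative to DMSO over 10 three-fold concentrations.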

The next test has as its target T3, GST tagged PIP4KtypeIIA (Homo sapiens, UniProt P48426).
T3 construct: made in house; host or cells: E. coli
T3 sequence (P48426 1-406): T2 sequence (P48426 1-406)
Description: ADP-glo kinase assay PIP4K 2A (PIP4KtypeIIA inhibition assay). It is filed as biochemical. The conditions noted are these: Table 3; compounds listed under IC50 range headings; 10 uM ATP, 0.5 nM PIP4KIIA. In outline: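 Read-out was ADP-Glo luminescence converted to μM ADP, with IC50 plotted as % of no-inhibitor activity against log concentration. Reactions contained 10 μM ATP, 80 μM PI5P with DOPE carrier, and 0.5 nM GST-tagged PIP4KIIA (E. coli-expressed) in pH 7.3 HEPES/MgCl2 buffer with 5% DMSO. Enzyme and compound (≤4.8 μM) were preincubated 1 h at 27 °C before the 1 h reaction.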

In the case of `CN1CCn2c(cc3c(-c4cncc(-c5ccc(N6CCCCC6=O)cc5)c4)ccnc32)C1=O` [Example 346, 7-methyl-4-(5-(4-(2-oxopiperidin-1-yl)phenyl)pyridin-3-yl)-8,9-dihydropyrido[3′,2′:4,5]pyrrolo[1,2-a]pyrazin-6(7H)-one], the IC50 (on GST tagged PIP4KtypeIIB; in test [1]; against GST tagged PIP4KtypeIIA) was 0.1 to 1 µM throughout.
Regarding `CN(C)C(=O)c1ccc(-c2cc(-c3ccnc4[nH]c(C(=O)N5CC(C(N)=O)C5)cc34)cnc2N)nc1` [Example 130, 2′-amino-5′-(2-(3-carbamoylazetidine-1-carbonyl)-1H-pyrrolo[2,3-b]pyridin-4-yl)-N,N-dimethyl-[2,3′-bipyridine]-5-carboxamide], the IC50 (at GST tagged PIP4KtypeIIB; in test [1]; against GST tagged PIP4KtypeIIA) was 0.1 to 1 µM in each case.
Consider `COC(=O)c1c[nH]c2nccc(-c3cnc(N)c(-c4ccc(C(=O)N(C)C)cn4)c3)c12` [Example 114, methyl 4-(2′-amino-5-(dimethylcarbamoyl)-[2,3′-bipyridin]-5′-yl)-1H-pyrrolo[2,3-b]pyridine-3-carboxylate], for which the IC50 in test [1] is less than 5 µM; against GST tagged PIP4KtypeIIA, more than 5 µM.
On to `Cc1[nH]c2ncccc2c1-c1cncc(-c2ccc(C(=O)N(C)C)cc2)c1` [Example 11, N,N-dimethyl-4-(5-(2-methyl-1H-pyrrolo[2,3-b]pyridin-3-yl)pyridin-3-yl)benzamide], for which the IC50 (on GST tagged PIP4KtypeIIB; in test [1]; against GST tagged PIP4KtypeIIA) was 0.1 to 1 µM throughout.
With `CN(C)C(=O)c1ccc(-c2cc(-c3ccnc4cccc(C#N)c34)cnc2N)nc1` [Example 118, 2′-amino-5′-(5-cyanoquinolin-4-yl)-N,N-dimethyl-[2,3′-bipyridine]-5-carboxamide], the IC50 was more than 5 µM on GST tagged PIP4KtypeIIB, less than 5 µM in test [1] and more than 5 µM against GST tagged PIP4KtypeIIA.
In the case of `Cn1ccc2c(-c3cncc(-c4ccc(N5CCCC5=O)cc4)c3)cn(C)c2c1=O` [Example 243, 1,6-dimethyl-3-(5-(4-(2-oxopyrrolidin-1-yl)phenyl)pyridin-3-yl)-1,6-dihydro-7H-pyrrolo[2,3-c]pyridin-7-one], the IC50 (at GST tagged PIP4KtypeIIB; in test [1]; on GST tagged PIP4KtypeIIA) was 0.1 to 1 µM each time.
Consider `CN(C)C(=O)c1ccc(-c2cc(-c3ccnc4ncccc34)cnc2N)nc1` [Example 111, 2′-amino-N,N-dimethyl-5′-(1,8-naphthyridin-4-yl)-[2,3′-bipyridine]-5-carboxamide], for which the half-maximal inhibitory concentration (IC50) (on GST tagged PIP4KtypeIIB; in test [1]; on GST tagged PIP4KtypeIIA) was 0.1 to 1 µM in each case.
Consider `O=C1NCc2c(-c3cncc(-c4ccc(N5CCCC5=O)cc4)c3)ccnc21` [Example 78, 4-[5-[4-(2-Oxopyrrolidin-1-yl)phenyl]-3-pyridyl]-5,6-dihydropyrrolo[3,4-b]pyridin-7-one], for which the IC50 was 0.1 to 1 µM at GST tagged PIP4KtypeIIB, 0.005 to 0.1 µM in test [1] and 0.1 to 1 µM against GST tagged PIP4KtypeIIA.
Regarding `O=C1CCCN1c1ccc(-c2cncc(-c3ccnc4[nH]ncc34)c2)cc1` [Example 215, 1-(4-(5-(2H-pyrazolo[3,4-b]pyridin-4-yl)pyridin-3-yl)phenyl)pyrrolidin-2-one], the results for the IC50 (on GST tagged PIP4KtypeIIB; in test [1]; against GST tagged PIP4KtypeIIA) were 0.1 to 1 µM, 0.005 to 0.1 µM and 0.1 to 1 µM, respectively.
For `COc1cnc2[nH]ccc2c1-c1cncc(-c2ccc(N3CCCC3=O)cc2)c1` [Example 34, 1-(4-(5-(5-methoxy-1H-pyrrolo[2,3-b]pyridin-4-yl)pyridin-3-yl)phenyl)pyrrolidin-2-one], the IC50 on GST tagged PIP4KtypeIIB fell in the range of 0.1 to 1 µM; in test [1], 0.005 to 0.1 µM; against GST tagged PIP4KtypeIIA it was 0.1 to 1 µM.
Turning to `CN(C)C(=O)c1ccc(-c2cc(-c3[nH]nc4ncncc34)cnc2N)nc1` [Example 214, 2′-amino-N,N-dimethyl-5′-(2H-pyrazolo[3,4-d]pyrimidin-3-yl)-[2,3′-bipyridine]-5-carboxamide], the IC50 (on GST tagged PIP4KtypeIIB; in test [1]; at GST tagged PIP4KtypeIIA) was 0.1 to 1 µM in each case.
With `CNC(=O)c1cnc2[nH]cc(-c3cncc(-c4ccc(N5CCCC5=O)cc4)c3)c2c1` [Example 71, N-methyl-3-(5-(4-(2-oxopyrrolidin-1-yl)phenyl)pyridin-3-yl)-1H-pyrrolo[2,3-b]pyridine-5-carboxamide], the values for the IC50 (on GST tagged PIP4KtypeIIB; in test [1]; against GST tagged PIP4KtypeIIA) were 0.01 to 0.1 µM, 0.005 to 0.1 µM and 0.1 to 1 µM, respectively.
Turning to `O=C1c2cc3c(-c4cncc(-c5ccc(N6CCCC6=O)cc5)c4)ccnc3n2CCN1CC1CC1` [Example 47, 7-(cyclopropylmethyl)-4-(5-(4-(2-oxopyrrolidin-1-yl)phenyl)pyridin-3-yl)-8,9-dihydropyrido[3′,2′:4,5]pyrrolo[1,2-a]pyrazin-6(7H)-one], the IC50 at GST tagged PIP4KtypeIIB is 0.01 to 0.1 µM; in test [1] it was 0.005 to 0.1 µM; against GST tagged PIP4KtypeIIA it was 0.1 to 1 µM.
Taken in the same sequence, the figures for `CN(C)C(=O)c1ccc(-c2cc(-c3cc(N)ncn3)cnc2N)nc1` [Example 217, 2′-amino-5′-(6-aminopyrimidin-4-yl)-N,N-dimethyl-[2,3′-bipyridine]-5-carboxamide] were 0.1 to 1 µM, 0.1 to 1 µM and 0.1 to 1 µM.
The corresponding values for `CN(C)C(=O)c1ccc(-c2cc(-c3ccnc4nc[nH]c34)cnc2N)nc1` [Example 213, 2′-amino-5′-(1H-imidazo[4,5-b]pyridin-7-yl)-N,N-dimethyl-[2,3′-bipyridine]-5-carboxamide] are 1 to 2.5 µM, 0.1 to 1 µM and 2.5 to 5 µM.
As for `Cc1cc(N2CCCC2=O)ccc1-c1cncc(-c2ccncc2)c1` [Example 81, 1-(4-([3,4′-bipyridin]-5-yl)-3-methylphenyl)pyrrolidin-2-one], the values for the IC50 (in test [1]; on GST tagged PIP4KtypeIIA) were less than 5 µM and 1 to 2.5 µM, respectively.
In the case of `COCc1c(-c2ccncc2)cncc1-c1ccc(N2CCCC2=O)cc1` [Example 83, 1-(4-(4-(methoxymethyl)-[3,4′-bipyridin]-5-yl)phenyl)pyrrolidin-2-one], the IC50 in test [1] was 1 to 2.5 µM; against GST tagged PIP4KtypeIIA it was more than 5 µM.
As to `C[C@H]1CC(=O)N(c2ccc(-c3cncc(-c4ccnc5c4cc4n5CCN(C)C4=O)c3)cc2)C1` [Example 199, (S)-7-methyl-4-(5-(4-(4-methyl-2-oxopyrrolidin-1-yl)phenyl)pyridin-3-yl)-8,9-dihydropyrido[3′,2′:4,5]pyrrolo[1,2-a]pyrazin-6(7H)-one], the IC50 lay in the range of 0.01 to 0.1 µM on GST tagged PIP4KtypeIIB and 0.1 to 1 µM against GST tagged PIP4KtypeIIA.
The corresponding values for `COC(=O)c1cc2c(-c3cncc(-c4ccc(N5CCCC5=O)cc4)c3)c(C)cnc2[nH]1` [Example 290, methyl 5-methyl-4-(5-(4-(2-oxopyrrolidin-1-yl)phenyl)pyridin-3-yl)-1H-pyrrolo[2,3-b]pyridine-2-carboxylate] are 0.1 to 1 µM and 0.1 to 1 µM.
Taken in the same sequence, the figures for `Cc1c(-c2ccc(N3CCCC3=O)cc2)cncc1-c1cn(C)c2ncc([C@@H](C)O)cc12` (single isomer, unassigned) [196(R)] were 0.1 to 1 µM and 0.1 to 1 µM.
For the molecule `Cn1cc(-c2cncc(-c3ccc(N4CCCC4=O)cc3)c2)c2cncnc21` [Example 153, 1-(4-(5-(7-methyl-7H-pyrrolo[2,3-d]pyrimidin-5-yl)pyridin-3-yl)phenyl)pyrrolidin-2-one], the IC50 in test [1] was less than 5 µM; on GST tagged PIP4KtypeIIA it was 0.01 to 0.1 µM.
Take `CNC(=O)c1cc2c(-c3cncc(-c4ccc(N5CCCC5=O)cc4)c3)ccnc2[nH]1` [Example 240, N-methyl-4-(5-(4-(2-oxopyrrolidin-1-yl)phenyl)pyridin-3-yl)-1H-pyrrolo[2,3-b]pyridine-2-carboxamide]: the IC50 at GST tagged PIP4KtypeIIB was 0.01 to 0.1 µM; against GST tagged PIP4KtypeIIA, 0.1 to 1 µM.
